Test results published in patent US9278981B2, “Compounds and compositions for inhibiting the activity of ABL1, ABL2 and BCR-ABL1” (Novartis AG, priority 2012, dated 2016).

What was measured:
ABL1 (64-515) [1] = target: T1, ABL1 (64-515) (Homo sapiens (Human), UniProt P00519); assay: Caliper ABL1 (64-515) assay (microfluidic mobility shift); assay type: biochemical
Ba/F3-BCR-ABL1-WT cells = assay: cells; conditions: Mus musculus, 48 h, read-out: Ba/F3-BCR-ABL1-WT IC50 [μM]
ABL1 (64-515) [2] = target: T1, ABL1 (64-515); assay: Radio ABL1 (64-515) assay (radiometric filter-binding); assay type: biochemical
BCR-ABL1+KCL-22 cells = assay: Acquired resistance in BCR-ABL1+KCL-22 cells in vitro; assay type: cell-based; conditions: cells treated every 3-4 days

T1 sequence (P00519 64-515): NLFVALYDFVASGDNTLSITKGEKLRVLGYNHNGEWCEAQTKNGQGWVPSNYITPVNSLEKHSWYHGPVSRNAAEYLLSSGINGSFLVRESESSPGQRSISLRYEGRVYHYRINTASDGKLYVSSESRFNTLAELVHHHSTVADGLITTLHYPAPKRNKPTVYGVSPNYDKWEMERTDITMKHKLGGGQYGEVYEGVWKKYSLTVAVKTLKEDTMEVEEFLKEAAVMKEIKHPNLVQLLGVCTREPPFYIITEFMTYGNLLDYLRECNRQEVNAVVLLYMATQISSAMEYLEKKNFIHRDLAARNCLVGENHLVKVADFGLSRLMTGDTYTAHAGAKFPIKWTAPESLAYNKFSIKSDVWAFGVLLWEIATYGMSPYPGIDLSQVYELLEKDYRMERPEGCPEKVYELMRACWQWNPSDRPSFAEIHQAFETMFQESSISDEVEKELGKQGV

Row | IC50 (ABL1 (64-515) [1]) [nM] | IC50 (ABL1 (64-515) [2]) [nM] | Structure (SMILES) | IC50 (Ba/F3-BCR-ABL1-WT cells) [µM] | time until acquired resistance (BCR-ABL1+KCL-22 cells) [days]
1 |  |  | Cc1cn(-c2cc(NC(=O)c3ccc(C)c(Nc4nccc(-c5cccnc5)n4)c3)cc(C(F)(F)F)c2)cn1 [nilotinib] |  | 18 to 21
2 |  |  | O=C(Nc1ccc(OC(F)(F)Cl)cc1)c1cnc(N2CC[C@@H](O)C2)c(-c2cncnc2)c1 [Example 170, (R)—N-(4-(Chlorodifluoromethoxy)phenyl)-6-(3-hydroxypyrrolidin-1-yl)-5-(pyrimidin-5-yl)nicotinamide] | 0.0005 | 
3 | 1.4 | 4 | Nc1ncc(-c2cc(C(=O)Nc3ccc(OC(F)(F)F)cc3)cnc2N2CC[C@@H](O)C2)cn1 [Example 38, (R)-5-(2-Aminopyrimidin-5-yl)-6-(3-hydroxypyrrolidin-1-yl)-N-(4-(trifluoromethoxy)phenyl)nicotinamide] |  | 
4 | 0.8 | 4 | N#Cc1cncc(-c2cc(C(=O)Nc3ccc(C(F)(F)C(F)(F)F)cc3)cnc2N2CC[C@@H](O)C2)c1 [Example 210, (R)-5′-Cyano-2-(3-hydroxypyrrolidin-1-yl)-N-(4-(perfluoroethyl)phenyl)-[3,3′-bipyridine]-5-carboxamide] |  | 
5 | 1.2 | 2 | O=C(Nc1ccc(OC(F)(F)Cl)cc1)c1cnc(N2CC[C@@H](O)C2)c(-c2cc(F)nc(F)c2)c1 [Example 273] |  | 
6 | 1.7 | 5 | CCN(CCO)c1ncc(C(=O)Nc2ccc(OC(F)(F)F)cc2)cc1-c1cncnc1 [Example 156, 6-(Ethyl(2-hydroxyethyl)amino)-5-(pyrimidin-5-yl)-N-(4-(trifluoromethoxy)phenyl)nicotinamide] |  | 
7 | 0.6 | 6 | O=C(Nc1ccc(OC(F)(F)F)cc1)c1cnc(N2CC(CO)C2)c(-c2cccnc2)c1 [Example 137, 2-(3-(Hydroxymethyl)azetidin-1-yl)-N-(4-(trifluoromethoxy)phenyl)-[3,3′-bipyridine]-5-carboxamide] |  | 
8 | 0.4 | < 0.1 | N#Cc1ccncc1-c1cc(C(=O)Nc2ccc(OC(F)(F)Cl)cc2)cnc1N1CC[C@@H](O)C1 [Example 274] |  | 
9 | 1.1 | < 3 | O=C(Nc1ccc(OC(F)(F)F)cc1)c1cnc(N2CC[C@@H](O)C2)c(-c2cncc(F)c2)c1 [Example 45, (R)-5′-Fluoro-2-(3-hydroxypyrrolidin-1-yl)-N-(4-(trifluoromethoxy)phenyl)-[3,3′-bipyridine]-5-carboxamide] |  | 
10 | 1.6 | 0.9 | N[C@@H]1[C@H]2CN(c3ncc(C(=O)Nc4ccc(OC(F)(F)F)cc4)cc3-c3cncnc3)C[C@@H]12 [Example 227] |  | 
11 | 1.3 | 8.4 | Cc1ccc(-c2cc(C(=O)Nc3ccc(OC(F)(F)F)cc3)cnc2N2CC(C)(O)C2)cn1 [Example 131, 2-(3-Hydroxy-3-methylazetidin-1-yl)-6′-methyl-N-(4-(trifluoromethoxy)phenyl)-[3,3′-bipyridine]-5-carboxamide] |  | 

Row | Structure (SMILES) | IC50 (ABL1 (64-515) [1]) [nM] | IC50 (ABL1 (64-515) [2]) [nM] | IC50 (Ba/F3-BCR-ABL1-WT cells) [µM] | time until acquired resistance (BCR-ABL1+KCL-22 cells) [days]
12 | Cc1ncncc1-c1cc(C(=O)Nc2ccc(OC(F)(F)Cl)cc2)ccc1N1C[C@H](O)[C@@H](O)C1 [Example 297, N-(4-(Chlorodifluoromethoxy)phenyl)-4-((3S,4S)-3,4-dihydroxypyrrolidin-1-yl)-3-(4-methylpyrimidin-5-yl)benzamide] | 1.4 |  | 0.0013 | 
13 | O=C(Nc1ccc(C(F)(F)C(F)(F)F)cc1)c1cnc(N2CC[C@@H](O)C2)c(-c2cncnc2)c1 [Example 208, (R)-6-(3-Hydroxypyrrolidin-1-yl)-N-(4-(perfluoroethyl)phenyl)-5-(pyrimidin-5-yl)nicotinamide] | 0.6 | < 3 | 0.0039 | 
14 | CC(F)(F)Oc1ccc(NC(=O)c2cnc(N3CC[C@@H](O)C3)c(-c3cncnc3)c2)cc1 [Example 215, (R)—N-(4-(1,1-Difluoroethoxy)phenyl)-6-(3-hydroxypyrrolidin-1-yl)-5-(pyrimidin-5-yl)nicotinamide] | 7.9 | 1.2 | 0.0246 | 
15 | O=C(Nc1ccc(OC(F)(F)Cl)cc1)c1cnc(N2CC[C@@H](CO)[C@@H](O)C2)c(-c2cncnc2)c1 [Example 257] | 0.6 | 3 | 0.0011 | 
16 | O=C(Nc1ccc(S(F)(F)(F)(F)F)cc1)c1cnc(N2CC[C@@H](O)C2)c(-c2cncnc2)c1 [Example 216, (R)-6-(3-Hydroxypyrrolidin-1-yl)-5-(pyrimidin-5-yl)-N-(4-(pentafluorosulfanyl)phenyl)nicotinamide] | 0.7 | 3 | 0.0074 | 
17 | N#Cc1cncc(-c2cc(C(=O)Nc3ccc(OC(F)(F)Cl)cc3)cnc2N2C[C@@H](O)[C@@H](O)C2)c1 [Example 268] | 0.4 | 0.5 | 0.0032 | 
18 | N[C@H]1CN(c2ccc(C(=O)Nc3ccc(OC(F)(F)Cl)cc3)cc2-c2cncc(F)c2)C[C@@H]1O [Example 285, 4-((3S,4S)-3-Amino-4-hydroxypyrrolidin-1-yl)-N-(4-(chlorodifluoromethoxy)phenyl)-3-(5-fluoropyridin-3-yl)benzamide] | 0.6 | 1 | 0.0053 | 
19 | O=C(Nc1ccc(SC(F)(F)Cl)cc1)c1cnc(N2CC[C@@H](O)C2)c(-c2cncc(F)c2)c1 [Example 218, (R)—N-(4-((Chlorodifluoromethyl)thio)phenyl)-5′-fluoro-2-(3-hydroxypyrrolidin-1-yl)-[3,3′-bipyridine]-5-carboxamide] | 0.6 | 3 | 0.0009 | 
